We go through 2 molecules from ChEMBL document CHEMBL2429836, “Theoretical studies, synthesis, and biological activity of 1-[(4-methylphenyl)sulfonyl]-5-oxo-2,3,4,5-tetrahydro-1H-1-benzazepine-4-carbonitrile (C9) as a non-peptide antagonist of the arginine vasopressin V1a and V2 receptors” (Med Chem Res, 2013).

Assay [1] has as its target Vasopressin V1a receptor (Rattus norvegicus) (UniProt P30560). Briefly: Antagonist activity at vasopressin V1a receptor in rat thoracic aorta assessed as inhibition of AVP-induced vascular smooth muscle contraction at 59 uM. The assay is classed as tissue-based.
Assay [2] has the same target. Put plainly: Antagonist activity at vasopressin V1a receptor in rat thoracic aorta assessed as inhibition of AVP-induced vascular smooth muscle contraction. The assay is classed as tissue-based.
Assay [3] shares this target. Put plainly: Antagonist activity at vasopressin V1a receptor in rat thoracic aorta assessed as inhibition of AVP-induced vascular smooth muscle contraction at 5.9 uM. The assay is classed as tissue-based.
Assay [4] has as its system Rattus norvegicus. Briefly: Antidiuretic acitivity in water-loaded Wistar rat assessed as inhibition of AVP-mediated decrease in urine flow at 100 ug/kg, iv. In kind it is functional, organism-based.
Assay [5] addresses Vasopressin V1a receptor (Rattus norvegicus) (UniProt P30560). Briefly: Antagonist activity at vasopressin V1a receptor in rat thoracic aorta assessed as inhibition of AVP-induced vascular smooth muscle contraction at 590 uM. In kind it is tissue-based.
Assay [6] has the same target. Put plainly: Antagonist activity at vasopressin V1a receptor in endothelium-denuded rat thoracic aorta assessed as inhibition of AVP-induced vascular smooth muscle contraction at 10 uM.
Assay [7] has the same target. Briefly: Antagonist activity at vasopressin V1a receptor in endothelium intact rat thoracic aorta assessed as inhibition of AVP-induced vascular smooth muscle contraction at 10 uM.

Activity calls are given as the source filed them. The calls are words filed in the database; no cut-off is given here. Numbered stars: 1 amine (or outer) side, 2 acyl side, 3 side chain; on linkers, the order of the positions; unused ones are H or OH. Bridge positions count the residues as written; N and C are the ends. Peptide text beside a SMILES is read from it. X1 = CC(C)(CC(=O)[*:1])S[*:2]

Sequence of Vasopressin V1a receptor (Rattus norvegicus) (P30560 whole entry, looked up): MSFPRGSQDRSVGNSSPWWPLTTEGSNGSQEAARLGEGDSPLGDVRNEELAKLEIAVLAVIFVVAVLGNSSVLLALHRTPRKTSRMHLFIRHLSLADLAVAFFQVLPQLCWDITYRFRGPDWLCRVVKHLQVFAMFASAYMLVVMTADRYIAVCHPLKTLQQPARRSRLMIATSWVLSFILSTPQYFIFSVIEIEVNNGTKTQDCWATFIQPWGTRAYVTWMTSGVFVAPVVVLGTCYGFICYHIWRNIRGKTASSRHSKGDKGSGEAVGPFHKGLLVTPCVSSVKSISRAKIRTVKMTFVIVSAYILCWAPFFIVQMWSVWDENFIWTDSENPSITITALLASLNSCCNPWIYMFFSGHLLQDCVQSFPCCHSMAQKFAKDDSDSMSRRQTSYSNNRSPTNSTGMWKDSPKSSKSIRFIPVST

`Cc1ccc(S(=O)(=O)N2CCC(C#N)C(=O)c3ccccc32)cc1` (configuration not stated): the results for the inhibition in assay [1], in assay [2] and in assay [3] were 70%, “Dose-dependent effect” and 25%, respectively. Further, the inhibition entry in assay [4] and in assay [5] was “Active” each time.

As to `COc1ccc(C[C@@H]2NC(=O)CC(C)(C)SSC[C@@H](C(=O)N3CCC[C@H]3C(=O)N[C@@H](CCCN=C(N)N)C(=O)NCC(N)=O)NC(=O)[C@H](CC(N)=O)NC(=O)[C@H](CCC(N)=O)NC(=O)[C@H](Cc3ccccc3)NC2=O)cc1` (Y(Me)FQNCPRG-NH2; linker N-5 via X1), the inhibition entry in assay [6] and in assay [7] was “Active” throughout.
